Assay results taken from patent publication US20020137929A1, “1 - (3-heterocyclylphenyl) isothiourea, -isourea, -guanidine and -amidine herbicidal agents” (Intellectual Property Department, BASF Aktiengesellschaft, priority 1998, published 2002).

Legend:
ABUTH (Velvetleaf) [1] = assay: Postemergence herbicidal evaluation; assay type: in vivo, Abutilon theophrasti; details: postemergence
How it was run: (§1)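 Rate range approx. 0.0156–0.500 kg/ha. Foliar application at 40 psi to ~2-week seedlings; surfactant 0.5% TWEEN 20 in 50/50 acetone/water. Evaluation 4–5 wk post-treatment by 0–9 visual injury score, means of replicate tests.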

[2] = test system: CHEAL (Lambsquarters, Common); assay: Postemergence herbicidal evaluation; assay type: in vivo, Chenopodium album; details: postemergence
How it was run: as §1

[3] = test system: IPOHE (Morningglory, Ivyleaf); assay: Postemergence herbicidal evaluation; assay type: in vivo, Ipomoea hederacea; details: postemergence
How it was run: as §1

ECHCG (Barnyardgrass) [4] = assay: Postemergence herbicidal evaluation; assay type: in vivo, Echinochloa crus-galli; details: postemergence
How it was run: as §1

SETVI (Foxtail, Green) = assay: Postemergence herbicidal evaluation; assay type: in vivo, Setaria viridis; details: postemergence
How it was run: as §1

ORYSAT (Rice, Tebonnet) = assay: Postemergence herbicidal evaluation; assay type: in vivo, Oryza sativa, (L.) Tebonnet; details: postemergence
How it was run: as §1

ZEAMX (Corn, Field) [5] = assay: Postemergence herbicidal evaluation; assay type: in vivo, Zea mays; details: postemergence
How it was run: as §1

ABUTH (Velvetleaf) [6] = assay: Preemergence herbicidal evaluation; assay type: in vivo, Abutilon theophrasti; details: rated 4-5 weeks after treatment
How it was run: (§2)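 Test compound, dissolved in aqueous acetone, was sprayed over planted soil cups at an equivalent of about 0.0156 to 0.500 kg/ha; seeds had been mixed with potting soil. Greenhouse growth followed, with visual 0-9 scoring of injury at four to five weeks.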

CASOB (Sicklepod) = assay: Preemergence herbicidal evaluation; assay type: in vivo, Cassia obtusifolia; details: rated 4-5 weeks after treatment
How it was run: as §2

[7] = test system: CHEAL (Lambsquarters, Common); assay: Preemergence herbicidal evaluation; assay type: in vivo, Chenopodium album; details: rated 4-5 weeks after treatment
How it was run: as §2

[8] = test system: IPOHE (Morningglory, Ivyleaf); assay: Preemergence herbicidal evaluation; assay type: in vivo, Ipomoea hederacea; details: rated 4-5 weeks after treatment
How it was run: as §2

ECHCG (Barnyardgrass) [9] = assay: Preemergence herbicidal evaluation; assay type: in vivo, Echinochloa crus-galli; details: rated 4-5 weeks after treatment
How it was run: as §2

[10] = test system: GLXMAW (Soybean, Williams); assay: Preemergence herbicidal evaluation; assay type: in vivo, Glycine max, (L.) Merr. cv Williams; details: rated 4-5 weeks after treatment
How it was run: as §2

[11] = test system: TRZAWR (Wheat, Winter, cv Riband); assay: Preemergence herbicidal evaluation; assay type: in vivo, Triticum aestivum; details: rated 4-5 weeks after treatment
How it was run: as §2

ZEAMX (Corn, Field) [12] = assay: Preemergence herbicidal evaluation; assay type: in vivo, Zea mays; details: rated 4-5 weeks after treatment
How it was run: as §2

CYPIR (Rice Flatsedge) = assay: Postemergence weed control under flooded paddy conditions; assay type: in vivo, Cyperus iria; details: postemergence weeds, 3-4 weeks after treatment
How it was run: (§3)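 Flood-water application, about 0.0313–0.500 kg/ha a.i. in aqueous/acetone 50/50 v/v; water depth 1.5–3 cm throughout. Weeds 3–5 cm, rice 1.5–2.5 leaf. Greenhouse; 0–9 visual rating vs control at 3–4 wk.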

CYPSE (Flatsedge) = assay: as above; assay type: in vivo, Cyperus serotinus; details: postemergence weeds, 3-4 weeks after treatment
How it was run: as §3

`CCOC(=O)CN1C(=O)CO/C1=N/c1cc(-n2c(=O)cc(C(F)(F)F)n(C)c2=O)c(F)cc1Cl` [Compound 22, Ethyl 2-{{2-chloro-5-[3,6-dihydro-3-methyl-2,6-dioxo-4-(trifluoromethyl)-1(2H)-pyrimidinyl]-4-fluorophenyl}imino}-4-oxo-3-oxazolidineacetate] showed an ABUTH herbicidal rating (ABUTH (Velvetleaf) [1]; rate 0.0158 kg/ha) of 9.0, an ABUTH herbicidal rating (ABUTH (Velvetleaf) [1]; rate 0.0315 kg/ha) of 9.0 and an ABUTH herbicidal rating (ABUTH (Velvetleaf) [1]; rate 0.0630 kg/ha) of 9.0. For the same compound, the CHEAL herbicidal rating ([2]; rate 0.0158 kg/ha) was 4.0, the CHEAL herbicidal rating ([2]; rate 0.0315 kg/ha) was 6.0 and the CHEAL herbicidal rating ([2]; rate 0.0630 kg/ha) was 3.0. It also gave an IPOHE herbicidal rating ([3]; rate 0.0158 kg/ha) of 9.0, an IPOHE herbicidal rating ([3]; rate 0.0315 kg/ha) of 9.0 and an IPOHE herbicidal rating ([3]; rate 0.0630 kg/ha) of 9.0. It also gave an ECHCG herbicidal rating (ECHCG (Barnyardgrass) [4]; rate 0.0158 kg/ha) of 2.0, an ECHCG herbicidal rating (ECHCG (Barnyardgrass) [4]; rate 0.0315 kg/ha) of 2.0 and an ECHCG herbicidal rating (ECHCG (Barnyardgrass) [4]; rate 0.0630 kg/ha) of 1.0. The SETVI herbicidal rating (SETVI (Foxtail, Green); rate 0.0158 kg/ha) was 3.0, the SETVI herbicidal rating (SETVI (Foxtail, Green); rate 0.0315 kg/ha) was 5.0 and the SETVI herbicidal rating (SETVI (Foxtail, Green); rate 0.0630 kg/ha) was 7.0. The ORYSAT herbicidal rating (ORYSAT (Rice, Tebonnet); rate 0.0158 kg/ha) was 2.5, the ORYSAT herbicidal rating (ORYSAT (Rice, Tebonnet); rate 0.0315 kg/ha) was 3.0 and the ORYSAT herbicidal rating (ORYSAT (Rice, Tebonnet); rate 0.0630 kg/ha) was 4.5. It also gave a ZEAMX herbicidal rating (ZEAMX (Corn, Field) [5]; rate 0.0158 kg/ha) of 7.0, a ZEAMX herbicidal rating (ZEAMX (Corn, Field) [5]; rate 0.0315 kg/ha) of 7.5 and a ZEAMX herbicidal rating (ZEAMX (Corn, Field) [5]; rate 0.0630 kg/ha) of 7.5. The “ABUTH preemergence herbicidal rating” value (ABUTH (Velvetleaf) [6]; rate 0.0156 kg/ha) was 9.0, the “ABUTH preemergence herbicidal rating” value (ABUTH (Velvetleaf) [6]; rate 0.0313 kg/ha) was 9.0 and the “ABUTH preemergence herbicidal rating” value (ABUTH (Velvetleaf) [6]; rate 0.0625 kg/ha) was 9.0. For the same compound, the “ABUTH preemergence herbicidal rating” value (ABUTH (Velvetleaf) [6]; rate 0.1250 kg/ha) was 9.0, the “ABUTH preemergence herbicidal rating” value (ABUTH (Velvetleaf) [6]; rate 0.2500 kg/ha) was 9.0 and the “CASOB preemergence herbicidal rating” value (CASOB (Sicklepod); rate 0.0156 kg/ha) was 0.0. For the same compound, the “CASOB preemergence herbicidal rating” value (CASOB (Sicklepod); rate 0.0313 kg/ha) was 0.0, the “CASOB preemergence herbicidal rating” value (CASOB (Sicklepod); rate 0.0625 kg/ha) was 0.0 and the “CASOB preemergence herbicidal rating” value (CASOB (Sicklepod); rate 0.1250 kg/ha) was 3.0. The “CASOB preemergence herbicidal rating” value (CASOB (Sicklepod); rate 0.2500 kg/ha) was 9.0, the “CHEAL preemergence herbicidal rating” value ([7]; rate 0.0156 kg/ha) was 9.0 and the “CHEAL preemergence herbicidal rating” value ([7]; rate 0.0313 kg/ha) was 9.0. The “CHEAL preemergence herbicidal rating” value ([7]; rate 0.0625 kg/ha) was 9.0, the “CHEAL preemergence herbicidal rating” value ([7]; rate 0.1250 kg/ha) was 9.0 and the “CHEAL preemergence herbicidal rating” value ([7]; rate 0.2500 kg/ha) was 9.0. For the same compound, the “IPOHE preemergence herbicidal rating” value ([8]; rate 0.0156 kg/ha) was 0.0, the “IPOHE preemergence herbicidal rating” value ([8]; rate 0.0313 kg/ha) was 2.0 and the “IPOHE preemergence herbicidal rating” value ([8]; rate 0.0625 kg/ha) was 9.0. The “IPOHE preemergence herbicidal rating” value ([8]; rate 0.1250 kg/ha) was 9.0, the “IPOHE preemergence herbicidal rating” value ([8]; rate 0.2500 kg/ha) was 9.0 and the “ECHCG preemergence herbicidal rating” value (ECHCG (Barnyardgrass) [9]; rate 0.0156 kg/ha) was 0.0. The “ECHCG preemergence herbicidal rating” value (ECHCG (Barnyardgrass) [9]; rate 0.0313 kg/ha) was 0.0, the “ECHCG preemergence herbicidal rating” value (ECHCG (Barnyardgrass) [9]; rate 0.0625 kg/ha) was 0.0 and the “ECHCG preemergence herbicidal rating” value (ECHCG (Barnyardgrass) [9]; rate 0.1250 kg/ha) was 3.0. The “ECHCG preemergence herbicidal rating” value (ECHCG (Barnyardgrass) [9]; rate 0.2500 kg/ha) was 9.0, the “GLXMAW preemergence herbicidal rating” value ([10]; rate 0.0156 kg/ha) was 0.0 and the “GLXMAW preemergence herbicidal rating” value ([10]; rate 0.0313 kg/ha) was 0.0. The “GLXMAW preemergence herbicidal rating” value ([10]; rate 0.0625 kg/ha) was 3.0, the “GLXMAW preemergence herbicidal rating” value ([10]; rate 0.1250 kg/ha) was 7.0 and the “GLXMAW preemergence herbicidal rating” value ([10]; rate 0.2500 kg/ha) was 9.0. The “TRZAWR preemergence herbicidal rating” value ([11]; rate 0.0156 kg/ha) was 0.0, the “TRZAWR preemergence herbicidal rating” value ([11]; rate 0.0313 kg/ha) was 0.0 and the “TRZAWR preemergence herbicidal rating” value ([11]; rate 0.0625 kg/ha) was 1.0. For the same compound, the “TRZAWR preemergence herbicidal rating” value ([11]; rate 0.1250 kg/ha) was 5.0, the “TRZAWR preemergence herbicidal rating” value ([11]; rate 0.2500 kg/ha) was 7.0 and the “ZEAMX preemergence herbicidal rating” value (ZEAMX (Corn, Field) [12]; rate 0.0156 kg/ha) was 2.0. For the same compound, the “ZEAMX preemergence herbicidal rating” value (ZEAMX (Corn, Field) [12]; rate 0.0313 kg/ha) was 5.0, the “ZEAMX preemergence herbicidal rating” value (ZEAMX (Corn, Field) [12]; rate 0.0625 kg/ha) was 7.0 and the “ZEAMX preemergence herbicidal rating” value (ZEAMX (Corn, Field) [12]; rate 0.1250 kg/ha) was 8.0. For the same compound, the “ZEAMX preemergence herbicidal rating” value (ZEAMX (Corn, Field) [12]; rate 0.2500 kg/ha) was 9.0, the “Herbicidal rating CYPIR” value (CYPIR (Rice Flatsedge); rate 0.1160 kg/ha) was 0.0 and the “Herbicidal rating CYPIR” value (CYPIR (Rice Flatsedge); rate 0.2310 kg/ha) was 0.0. The “Herbicidal rating CYPIR” value (CYPIR (Rice Flatsedge); rate 0.4630 kg/ha) was 5.0, the “Herbicidal rating CYPSE” value (CYPSE (Flatsedge); rate 0.1160 kg/ha) was 4.0 and the “Herbicidal rating CYPSE” value (CYPSE (Flatsedge); rate 0.2310 kg/ha) was 4.0. For the same compound, the “Herbicidal rating CYPSE” value (CYPSE (Flatsedge); rate 0.4630 kg/ha) was 4.0.
